For orientation: IC50 means the midpoint of a concentration-inhibition curve. A lower IC50 goes with greater potency in that assay.

Here are results for 3 compounds from publication PMC3197600 (PLoS Pathogens, 2011).

Assay in all cases: biochemical
Experiment [1] concerns the target p57N2 (pandemic A/RI/5+/1957 H2N2 N2 neuraminidase) (Influenza A virus, UniProt Q194T1). More on the design: species or system influenza A virus A/RI/5+/1957 H2N2.
Experiment [2] has as its target N5 (avian H12N5 neuraminidase) (Influenza A virus (A/duck/Alberta/60/1976(H12N5)), UniProt A1ILL9).
Experiment [3] has as its target p09N1 (pH1N1 N1 neuraminidase) (Influenza A virus (A/California/04/2009(H1N1)), UniProt C3W5S3). More on the design: species or system 2009 pandemic influenza A H1N1 virus.

As for `[H]/N=C(\N)N[C@H]1C=C(C(=O)O)O[C@@H]([C@H](OC)[C@H](O)COC(=O)CCCCCCC)[C@@H]1NC(C)=O` [CS-8958, laninamivir octanoate], the figures for the IC50 in experiment [1], in experiment [2] and in experiment [3] were 129 nM, 389 nM and 947 nM, respectively.

Consider `CO[C@@H]([C@@H]1OC(C(=O)O)=C[C@H](NC(=N)N)[C@H]1NC(C)=O)[C@H](O)CO` [laninamivir], for which the IC50 in experiment [1] stood at 3.12 nM; in experiment [2], 0.9 nM.

For the compound `CCOC(=O)C1=C[C@@H](OC(CC)CC)[C@H](NC(C)=O)[C@@H](N)C1` [oseltamivir], the IC50 was 0.79 nM in experiment [1] and 0.83 nM in experiment [2].
